{"source": "patent US7115623B2", "about": "“PDE IV inhibitors” (Aska Pharmaceuticals Co., Ltd., priority 2001, dated 2006)", "key": {"Male Marshall ferrets": {"test_system": "Male Marshall ferrets", "assay": "Emetic action", "type": "in vivo", "details": "oral, observed within 12 hours", "protocol": "Male Marshall ferrets (each group consisting of 3 animals) as used herein fasted overnight. On the next day, a suspension of each test compound in 0.5% CMC—Na solution was administered orally to the animals. […] Next, each maximum tolerance dose against emesis was obtained. SB207499 was used for the reference compound in this assay."}, "[1]": {"test_system": "actively sensitized guinea pigs", "assay": "Inhibition of antigen-induced immediate asthmatic response (airway resistance, Konzett-Rossler method)", "type": "in vivo, Male Hartley outbred guinea pigs", "details": "orally, 60 minutes prior to antigen-challenge, ovalbumin-sensitized guinea pigs, Probit method; for ED50: Cavia porcellus", "protocol": "Male Hartley outbred guinea pigs were sensitized by administering intraperitoneally physiological saline (0.5 ml) containing ovalbumin (1 mg, antigen) and 5×10^9 inactivated Bordetella pertussis dead cells (adjuvant). Eleven to thirteen days after the first sensitization, 0.05 ml of an ovalbumin solution (1 mg/ml) (ovalbumin is dissolved in physiological saline) was administered to the lateroabdominal region of each guinea pig intracutaneously. An establishment of sensitization was checked relying on cutaneous reaction. Only guinea pigs wherein significant reddening responses occurred 5 to 10 minutes later were employed in the next measurement test for airway resistance.\nThe guinea pigs (3 animals per group) actively sensitized in the above step (1) were employed to measure for their airway pressure according to Konzett-Rossler method (Arch. Exp. Path. Pharmakol., 195, 71 (1940)).\nThirteen days after the final sensitization, guinea pigs fasted overnight, and were on the next day anesthetized with a pentobarbital solution (30 mg/1.2 ml/kg, dissolved in physiological saline, intraperitoneal administration). After the guinea pigs were fixed in a supine position, their trachea was incised followed by insertion with one port of a 4-port cannula. Among the remaining 3 ports, 2 ports were connected to an artificial respirator (Model 683, Harvard). The animals were ventilated with 10 ml/kg of air per ventilation at a rate of 60 beats/min via the artificial respirator from the cannula. One port remainder was connected to a respiratory amplifier (AR-601G, Nihon Kohden, Japan) via an airflow resistance tube (TV-241T, Nihon Kohden, Japan) and a differential pressure transducer (TP-602T, Nihon Kohden, Japan) connected with a control box (RY-111S, Nihon Kohden, Japan). From a catheter inserted into a left carotid artery, blood pressures were monitored with a blood pressure measurement unit (AP641G, NEC Corp., Japan) via a blood pressure transducer (TP-300T, Nihon Kohden, Japan), and heart rates were recorded on a thermal recorder (WT-685G, Nihon Kohden, Japan), relying on blood pressure pulse waves after being led to a cardiograph unit (AT601G, Nihon Kohden, Japan).\nAfter airway pressure became stable, an ovalbumin solution. (1 mg/ml, dissolved in physiological saline) was administered at a dose of 1 ml/kg via a tube with which the right jugular vein of guinea pigs was cannulated.\nEach test compound was suspended in 0.5% CMC—Na solution and administered orally with an oral sound at a dose of 0.03 to 20 mg/2 ml/kg 60 minutes prior to the antigen-challenge. Control groups received only 0.5% CMC—Na solution in an equivalent amount. The pentobarbital-anesthetization and tracheal incision were conducted 30 minutes prior to the antigen-challenge.\nEach percent reduction of increase in airway resistance (each test compound-administered group versus control group) was calculated according to the equation given below. ED50 was obtained by Probit method."}, "ICR mice": {"test_system": "ICR mice", "assay": "Toxicology study", "type": "in vivo", "details": "oral 300 mg/10 ml/kg", "protocol": "Each Compound (Example Nos. 7 and 8) was administered orally to ICR mice (7 animals per group) as a test compound. […] Each test compound was suspended in 0.5% CMC—Na solution and given orally to the animal at a dose of 300 mg/10 ml/kg."}, "[2]": {"test_system": "PDE IV isozymes separated from U937 culture cells", "assay": "PDE IV inhibition ([3H]-cAMP hydrolysis)", "type": "biochemical", "details": "cAMP 1 μM as substrate, 30° C., 20 minutes, Probit method", "protocol": "PDE IV isozymes as used herein were separated from U937 culture cells by using an anion exchange chromatography. Type IV PDE isozyme was admixed with ethylene glycol (EG) to adjust the final EG concentration to 30%, then stored at −20° C. and diluted when used. The enzymatic activity for PDE IV was measured using cAMP as a substrate.\nEach test compound was dissolved in DMSO to adjust the final concentration to 1% (2.5 μl/tube). Incubation buffer solution (pH7.5): • Tris-HCl (50 mM), magnesium chloride (6 mM), dithiothreitol (2.5 mM), 5-nucleotidase (4 μg/ml), bovine serum albumin (0.23 mg/ml), and cAMP (1 μM).\nA mixture of the aforementioned test compound solution and the buffer solution was incubated at 30° C. for 20 minutes. The reaction was quenched by admixing with 1 ml of anion exchange resin slurry (AG1-X8, 200–400 meshes, chloride form; Bio-Rad) to absorb unreacted substrates. After the reaction stopped, the mixture was centrifuged at 800×g for 10 minutes, and the resulting supernatant was collected with vials in 250 μl aliquots. To each vial was added 5 ml of ACS-II (scintillator, Amersham). The radioactivity was measured with a liquid scintillator counter for [^3H]-adenosine and set as the PDE IV activity."}, "TNF-α production": {"test_system": "TNF-α production", "assay": "Inhibition of TNF-α production in galactosamine- and LPS-stimulation", "type": "in vivo, C3H/HeN mice", "details": "Mus musculus; oral, 1 hour before i.v. galactosamine 800 mg/kg and LPS 5 μg/kg; serum TNF-α by ELISA 1 hour later", "protocol": "A suspension of each test compound in 0.5% CMC—Na solution was administered orally to C3H/HeN mice at a dose of 0.10 to 10 mg/kg. One hour later, the animals received intravenously galactosamine at a dose of 800 mg/kg and LPS at a dose 5 μg/kg to raise the induction of TNF-α production. One hour later after the galactosamine- and LPS-administration, amounts of TNF-α in serum samples were measured by ELISA."}}, "data": [{"smiles": "O=c1c(CCCc2cccnc2)cc2cccnc2n1-c1ccc2nsnc2c1", "note": "[Example 2, 1-(2,1,3-Benzothiadiazol-5-yl)-3-[3-(pyridin-3-yl)propyl]-1,8-naphthyridin-2(1H)-one]", "values": [{"measurement": "melting point", "value": "173.5 to 174.5", "unit": "°C"}]}, {"smiles": "O=c1c(CCCc2ccccn2)cc2cccnc2n1-c1ccc2nsnc2c1", "note": "[Example 3, 1-(2,1,3-Benzothiadiazol-5-yl)-3-[3-(pyridin-2-yl)propyl]-1,8-naphthyridin-2(1H)-one]", "values": [{"measurement": "melting point", "value": "169.5 to 170.5", "unit": "°C"}]}, {"smiles": "O=c1c(CCCc2cncnc2)cc2cccnc2n1-c1cccc([N+](=O)[O-])c1", "note": "[Example 4, 1-(3-Nitrophenyl)-3-[3-(pyrimidin-5-yl)propyl]-1,8-naphthyridin-2(1H)-one]", "values": [{"measurement": "melting point", "value": "175 to 175.5", "unit": "°C"}]}, {"smiles": "O=c1c(CCCc2cccnn2)cc2cccnc2n1-c1cccc([N+](=O)[O-])c1", "note": "[Example 5, 1-(3-Nitrophenyl)-3-[3-(pyridazin-3-yl)propyl]-1,8-naphthyridin-2(1H)-one]", "values": [{"measurement": "melting point", "value": "234 to 235", "unit": "°C"}]}, {"smiles": "O=c1c(CCCc2cnccn2)cc2cccnc2n1-c1cccc([N+](=O)[O-])c1", "note": "[Example 6, 1-(3-Nitrophenyl)-3-[3-(pyrazin-2-yl)propyl]-1,8-naphthyridin-2(1H)-one]", "values": [{"measurement": "melting point", "value": "194 to 195", "unit": "°C"}]}, {"smiles": "CN(C)c1cccc(-n2c(=O)c(CCCc3ccncc3)cc3cccnc32)c1", "note": "[Example 9, 1-(3-Dimethylaminophenyl)-3-[3-(pyridin-4-yl)propyl]-1,8-naphthyridin-2(1H)-one]", "values": [{"measurement": "melting point", "value": "124 to 127", "unit": "°C"}]}, {"smiles": "CC(=O)Nc1cccc(-n2c(=O)c(CCCc3ccncc3)cc3cccnc32)c1", "note": "[Example 10, 1-(3-Acetylaminophenyl)-3-[3-(pyridin-4-yl)propyl]-1,8-naphthyridin-2(1H)-one]", "values": [{"measurement": "melting point", "value": "200 to 202", "unit": "°C"}]}, {"smiles": "CC(CCc1cc2cccnc2n(-c2cccc(N)c2)c1=O)c1ccncc1", "note": "(centres unmarked) [Example 13, 1-(3-Aminophenyl)-3-[3-methyl-3-(pyridin-4-yl)propyl]-1,8-naphthyridin-2(1H)-one]", "values": [{"measurement": "melting point", "value": "83 to 91", "unit": "°C"}]}, {"smiles": "CC(CCc1cc2cccnc2n(-c2cccc(N(C)C)c2)c1=O)c1ccncc1", "note": "(centres unmarked) [Example 15, 1-(3-Dimethylaminophenyl)-3-[3-methyl-3-(pyridin-4-yl)propyl]-1,8-naphthyridin-2(1H)-one]", "values": [{"measurement": "melting point", "value": "148 to 154", "unit": "°C"}]}, {"smiles": "O=c1c(CCC(O)c2ccncc2)cc2cccnc2n1-c1cccc([N+](=O)[O-])c1", "note": "(centres unmarked) [Example 20, 1-(3-nitrophenyl)-3-[3-hydroxy-3-(pyridin-4-yl)propyl]-1,8-naphthyridin-2(1H)-one]", "values": [{"measurement": "melting point", "value": "235 to 236", "unit": "°C"}]}, {"smiles": "CC(=O)OC(CCc1cc2cccnc2n(-c2cccc([N+](=O)[O-])c2)c1=O)c1ccncc1", "note": "(centres unmarked) [Example 22, 1-(3-Nitrophenyl)-3-[3-acetyloxy-3-(pyridin-4-yl)propyl]-1,8-naphthyridin-2(1H)-one]", "values": [{"measurement": "melting point", "value": "69 to 71", "unit": "°C"}]}, {"smiles": "Nc1cccc(-n2c(=O)c(CCC(O)c3ccncc3)cc3cccnc32)c1", "note": "(centres unmarked) [Example 23, 1-(3-Aminophenyl)-3-[3-hydroxy-3-(pyridin-4-yl)propyl]-1,8-naphthyridin-2(1H)-one]", "values": [{"measurement": "melting point", "value": "209 to 211", "unit": "°C"}]}, {"smiles": "O=c1c(CCCc2ccncc2)cc2cccnc2n1-c1cccc2nsnc12", "note": "[Example 24, 1-(2,1,3-Benzothiadiazol-4-yl)-3-[3-(pyridin-4-yl)propyl]-1,8-naphthyridin-2(1H)-one]", "values": [{"measurement": "melting point", "value": "191 to 192", "unit": "°C"}]}, {"smiles": "O=c1c(CCCc2ccncc2)cc2cccnc2n1-c1ccc(Cl)c([N+](=O)[O-])c1", "note": "[Example 25, 1-(4-Chloro-3-nitrophenyl)-3-[3-(pyridin-4-yl)propyl]-1,8-naphthyridin-2(1H)-one]", "values": [{"measurement": "melting point", "value": "136 to 137", "unit": "°C"}]}, {"smiles": "O=c1c(CCCc2ccncc2)cc2cccnc2n1-c1ccc2nonc2c1", "note": "[Example 27, 1-(2,1,3-Benzoxadiazol-5-yl)-3-[3-(pyridin-4-yl)propyl]-1,8-naphthyridin-2(1H)-one]", "values": [{"measurement": "melting point", "value": "192 to 194", "unit": "°C"}]}, {"smiles": "Nc1cccc(-n2c(=O)c(CCCc3cc[n+]([O-])cc3)cc3cccnc32)c1", "note": "[Example No. 8, 1-(3-Aminophenyl)-3-[3-(1-oxypyridin-4-yl)propyl]-1,8-naphthyridin-2(1H)-one]", "values": [{"measurement": "Emetic actions at asthmatic response-inhibitory ED50 level", "setting": "Male Marshall ferrets; dose = ED50 of Assay Example 2", "value": "no observation for emetic actions"}, {"measurement": "ED50", "setting": "[1]", "value": 1.2, "unit": "mg/kg"}, {"measurement": "Body weight gain", "setting": "ICR mice", "value": "No reduction of body weight gains was observed"}, {"measurement": "Mortality", "setting": "ICR mice", "value": "None of the animals were died"}, {"measurement": "Other parameters (general health conditions)", "setting": "ICR mice", "value": "no abnormality was observed"}, {"measurement": "IC50", "setting": "[2]", "value": 0.067, "unit": "µM"}]}, {"smiles": "CC(CCc1cc2cccnc2n(-c2cccc([N+](=O)[O-])c2)c1=O)c1ccncc1", "note": "(centres unmarked) [Example No. 11, 1-(3-Nitrophenyl)-3-[3-methyl-3-(pyridin-4-yl)propyl]-1,8-naphthyridin-2(1H)-one]", "values": [{"measurement": "ED50", "setting": "[1]", "value": 0.12, "unit": "mg/kg"}, {"measurement": "IC50", "setting": "[2]", "value": 0.07, "unit": "µM"}, {"measurement": "melting point", "value": "154 to 155", "unit": "°C"}]}, {"smiles": "CC(CCc1cc2cccnc2n(-c2cccc([N+](=O)[O-])c2)c1=O)c1cc[n+]([O-])cc1", "note": "(centres unmarked) [Example No. 12, 1-(3-nitrophenyl)-3-[3-methyl-3-(1-oxypyridin-4-yl)propyl]-1,8-naphthyridin-2(1H)-one]", "values": [{"measurement": "ED50", "setting": "[1]", "value": 0.21, "unit": "mg/kg"}, {"measurement": "IC50", "setting": "[2]", "value": 0.13, "unit": "µM"}, {"measurement": "melting point", "value": "182.5 to 196.5", "unit": "°C"}]}, {"smiles": "O=C(CCc1cc2cccnc2n(-c2cccc([N+](=O)[O-])c2)c1=O)c1ccncc1", "note": "[Example No. 17, 1-(3-Nitrophenyl)-3-[3-oxy-3-(pyridin-4-yl)propyl]-1,8-naphthyridin-2(1H)-one]", "values": [{"measurement": "ED50", "setting": "[1]", "value": 0.71, "unit": "mg/kg"}, {"measurement": "IC50", "setting": "[2]", "value": 0.45, "unit": "µM"}]}, {"smiles": "Nc1cccc(-n2c(=O)c(CCC(=O)c3cc[n+]([O-])cc3)cc3cccnc32)c1", "note": "[Example No. 19, 1-(3-Aminophenyl)-3-[3-oxo-3-(1-oxypyridin-4-yl)propyl]-1,8-naphthyridin-2(1H)-one]", "values": [{"measurement": "Inhibition of Asthmatic response ED50", "setting": "[1]", "value": 0.38, "unit": "mg/kg"}]}, {"smiles": "COc1ccc(C2CNC(=O)C2)cc1OC1CCCC1", "note": "(centres unmarked) [Rolipram, reference compound]", "values": [{"measurement": "ED50", "setting": "[1]", "value": 0.51, "unit": "mg/kg"}]}, {"smiles": "COc1ccc([C@]2(C#N)CC[C@@H](C(=O)O)CC2)cc1OC1CCCC1", "note": "[SB207499, cis-4-cyano-4-[3-(cyclopentyloxy)-4-methoxyphenyl]cyclohexane-1-carboxylic acid, reference compound]", "values": [{"measurement": "Emetic activity at a half of the ED50 dose", "setting": "Male Marshall ferrets; a half of the ED50 dose of Assay Example 2", "value": "elicitation of emetic activity has been found"}, {"measurement": "ED50", "setting": "TNF-α production", "value": 0.9, "unit": "mg/kg"}, {"measurement": "ED50", "setting": "[1]", "value": 20, "unit": "mg/kg"}, {"measurement": "IC50", "setting": "[2]", "value": 0.03, "unit": "µM"}]}]}
